From patent publication US20230233541A1, “SUBSTITUTED BENZAMIDES AS MODULATORS OF TREX1” (Constellation Pharmaceuticals, Inc., priority 2020, published 2023)

Legend:
[1] = biological target: T1, full length human TREX1 (Homo sapiens, UniProt Q9NSU2); assay: TREX1 Biochemical Assay (fluorescence assay, degradation of dsDNA substrate); conditions: 150 pM TREX1, 60 nM dsDNA substrate, 25 minutes at room temperature; read-out: hTREX1 EC50
T1 construct: N-terminally His-Tev tagged full length human TREX1; His-Tev (His tag with TEV protease site) (N); made in house; host or cells: E. coli
T1 sequence (Q9NSU2 1-314): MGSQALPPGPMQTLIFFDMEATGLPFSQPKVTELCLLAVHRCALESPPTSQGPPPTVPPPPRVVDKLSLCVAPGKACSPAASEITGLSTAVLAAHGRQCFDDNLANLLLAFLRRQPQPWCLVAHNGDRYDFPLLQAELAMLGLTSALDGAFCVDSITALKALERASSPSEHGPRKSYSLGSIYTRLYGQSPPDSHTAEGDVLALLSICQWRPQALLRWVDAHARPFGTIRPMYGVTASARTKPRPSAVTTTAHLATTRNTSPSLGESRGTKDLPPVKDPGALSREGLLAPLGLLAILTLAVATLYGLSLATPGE
Summary of the method: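 E. coli-expressed His-Tev-tagged full-length TREX1 (150 pM) with 60 nM quenched-fluorophore dsDNA in Tris pH 7.4, 150 mM NaCl, 100 mM MgCl2, 1% DMSO, 25 min room temperature, 10-point dose-response. EDTA stop; fluorescence 615 nm (ex 570 nm); IC50 from four-parameter fit against pre-quenched and no-inhibitor controls.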

[2] = biological target: T2, human TREX2 (residues M44-A279) (Homo sapiens, UniProt Q9BQ50); assay: TREX2 Biochemical Assay (fluorescence assay, degradation of dsDNA substrate); conditions: 2.5 nM TREX2, 60 nM dsDNA substrate, 25 minutes at room temperature; read-out: hTREX2 EC50
T2 construct: human TREX2 (residues M44-A279, expressed in E. coli); His-Tev (His tag with TEV protease site) (N); made in house; host or cells: E. coli
T2 sequence (Q9BQ50 44-279 isoform Q9BQ50-1): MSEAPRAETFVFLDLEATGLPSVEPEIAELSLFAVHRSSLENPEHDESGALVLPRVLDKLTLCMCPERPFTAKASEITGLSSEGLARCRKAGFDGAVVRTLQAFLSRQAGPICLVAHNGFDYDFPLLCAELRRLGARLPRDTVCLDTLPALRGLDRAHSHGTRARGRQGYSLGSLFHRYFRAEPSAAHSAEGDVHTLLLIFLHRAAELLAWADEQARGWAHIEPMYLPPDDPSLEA
Summary of the method: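 His-Tev-tagged human TREX2 (M44-A279, E. coli-expressed) at 2.5 nM final, with 60 nM TEX615/quencher-labelled dsDNA in pH 7.4 Tris buffer with MgCl2 and 1.0% DMSO, 10-point dose-response, 25 min at room temperature, then EDTA quench. Fluorescence read at 615 nm (ex 570 nm). IC50 from four-parameter fit against pre-quenched and no-inhibitor controls.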

## CC(C)(C)OC(=O)Nc1cncc(CN(Cc2cccc(Cl)c2Cl)C(=O)c2cc(F)cc(F)c2)c1 [Compound 212]
[1]
  EC50: 0.1 to 1 µM
[2]
  EC50: 1 to 10 µM

## O=C(c1cc(F)ccc1F)N(Cc1cccnc1)Cc1ccc(Cl)cc1Cl [Compound 122]
[1]
  EC50: > 10 µM
[2]
  EC50: > 100 µM

## O=C(c1cccc(F)c1)N(Cc1cccnc1)CC1CCCCC1 [Compound 132]
[1]
  EC50: > 10 µM
[2]
  EC50: > 100 µM

## O=C(c1ccc(Cl)cc1O)N(Cc1cccnc1)Cc1cc(Cl)cc(Cl)c1 [Compound 45]
[1]
  EC50: > 10 µM
[2]
  EC50: > 100 µM

## O=C(O)c1ccc(CN(Cc2cccc(Cl)c2Cl)C(=O)c2cc(F)cc(F)c2)cn1 [Compound 148]
[1]
  EC50: < 0.1 µM
[2]
  EC50: < 1 µM

## Cc1noc(C)c1C(=O)N(Cc1cccnc1)Cc1ccc(Cl)cc1Cl [Compound 115]
[1]
  EC50: > 10 µM
[2]
  EC50: > 100 µM

## NC(=O)c1ccc(CN(Cc2cccc(Cl)c2Cl)C(=O)c2cccc(F)c2)cn1 [Compound 149]
[1]
  EC50: > 10 µM
[2]
  EC50: > 100 µM

## CC(C)[C@H](c1ccc(Cl)cc1Cl)N(Cc1cccnc1)C(=O)c1cccc(F)c1 (single isomer, unassigned) [Compound 159]
[1]
  EC50: 1 to 10 µM
[2]
  EC50: 10 to 100 µM

## O=C(O)CC[C@@H](c1ccccc1Cl)N(Cc1cccnc1)C(=O)c1cc(F)cc(F)c1 [Compound 244]
[1]
  EC50: < 0.1 µM
[2]
  EC50: 10 to 100 µM

## COc1cc(C(=O)N(Cc2cccnc2)Cc2ccc(Cl)cc2Cl)cc(Br)c1OC [Compound 32]
[1]
  EC50: > 10 µM
[2]
  EC50: > 100 µM

## O=C(O)c1ccc(CN(Cc2cncc(Cl)c2Cl)C(=O)c2cc(F)cc(F)c2)cn1 [Compound 202]
[1]
  EC50: < 0.1 µM
[2]
  EC50: 1 to 10 µM

## O=C(c1cccc(F)c1)N(Cc1cccnc1)Cc1cc(Cl)cc(Cl)c1 [Compound 23]
[1]
  EC50: > 10 µM
[2]
  EC50: > 100 µM

## O=C(c1cccc(F)c1F)N(Cc1cccnc1)Cc1ccc(Cl)cc1Cl [Compound 124]
[1]
  EC50: 1 to 10 µM
[2]
  EC50: > 100 µM

## O=C(c1cc(Cl)c(O)c(Cl)c1)N(Cc1cccnc1)Cc1ccc(Cl)cc1Cl [Compound 27]
[1]
  EC50: > 10 µM
[2]
  EC50: > 100 µM

## CNC(=O)c1ccc(CN(Cc2ccc(Cl)cc2Cl)C(=O)c2cccc(F)c2)cn1 [Compound 144, 5-({N-[(2,4-dichlorophenyl)methyl]-1-(3-fluorophenyl)formamido}methyl)-N-methylpyridine-2-carboxamide]
[1]
  EC50: 1 to 10 µM
[2]
  EC50: > 100 µM

## CNc1cc(CN(Cc2cccc(Cl)c2Cl)C(=O)c2cc(F)cc(F)c2)cnc1C(=O)O [Compound 240]
[1]
  EC50: < 0.1 µM
[2]
  EC50: 10 to 100 µM

## COc1ccnc(CN(Cc2ccc(C(=O)O)nc2)C(=O)c2cc(F)cc(F)c2)c1Cl [Compound 189]
[1]
  EC50: 0.1 to 1 µM
[2]
  EC50: 10 to 100 µM

## Cn1ncc2cc(CN(Cc3cccnc3)C(=O)c3cccc(F)c3)ccc21 [Compound 126]
[1]
  EC50: > 10 µM
[2]
  EC50: > 100 µM

## O=C(c1ccc(Oc2ccc(Cl)cc2)cc1)N(Cc1cccnc1)Cc1cc(Cl)cc(Cl)c1 [Compound 59]
[1]
  EC50: > 10 µM
[2]
  EC50: > 100 µM

## Cn1cc(CN(Cc2ccc(C(=O)O)nc2)C(=O)c2cc(F)cc(F)c2)c(C(F)(F)F)n1 [Compound 185]
[1]
  EC50: 0.1 to 1 µM
[2]
  EC50: 10 to 100 µM

## Cc1ncc(CN(Cc2ccc(Cl)cc2Cl)C(=O)c2cccc(F)c2)cn1 [Compound 108]
[1]
  EC50: > 10 µM
[2]
  EC50: > 100 µM

## O=C(c1ccc(Oc2ccc(F)cc2)cc1)N(Cc1cccnc1)Cc1cc(Cl)cc(Cl)c1 [Compound 74]
[1]
  EC50: > 10 µM
[2]
  EC50: > 100 µM

## NCC[C@@H](c1cccc(Cl)c1Cl)N(Cc1cccnc1)C(=O)c1cc(F)cc(F)c1 [Compound 237]
[1]
  EC50: > 10 µM
[2]
  EC50: 10 to 100 µM

## O=C(c1cc(F)cc(F)c1)N(Cc1ccc(CCO)nc1)Cc1ccc(Cl)cc1Cl [Compound 218]
[1]
  EC50: 0.1 to 1 µM
[2]
  EC50: 10 to 100 µM

## COc1nccc(CN(Cc2ccc(C(=O)O)nc2)C(=O)c2cc(F)cc(F)c2)c1Cl [Compound 188]
[1]
  EC50: < 0.1 µM
[2]
  EC50: 1 to 10 µM

## CCOc1cccc([C@H](CC)N(Cc2ccc(C(=O)O)nc2)C(=O)c2cc(F)cc(F)c2)c1Cl [Compound 229]
[1]
  EC50: < 0.1 µM
[2]
  EC50: 1 to 10 µM

## O=C(O)c1ccc(CN(Cc2sc(Cl)nc2Cl)C(=O)c2cc(F)cc(F)c2)cn1 [Compound 200]
[1]
  EC50: 0.1 to 1 µM
[2]
  EC50: 10 to 100 µM

## CC[C@H](c1cccc(OC2COC2)c1Cl)N(Cc1ccc(C(=O)O)nc1)C(=O)c1cc(F)cc(F)c1 [Compound 231]
[1]
  EC50: 0.1 to 1 µM
[2]
  EC50: 1 to 10 µM

## O=C(O)c1ccc(CN(Cc2cccc(Cl)c2Cl)C(=O)c2cc(F)cc(F)c2)c(O)n1 [Compound 247]
[1]
  EC50: 0.1 to 1 µM
[2]
  EC50: 10 to 100 µM

## COc1cc(C(=O)N(Cc2cccnc2)Cc2cc(Cl)cc(Cl)c2)cc(Br)c1O [Compound 62]
[1]
  EC50: > 10 µM
[2]
  EC50: > 100 µM

## O=C(c1ccccc1)N(Cc1cccnc1)Cc1cc(Cl)cc(Cl)c1 [Compound 1, N-[(3,5-dichlorophenyl)methyl]-N-[(pyridin-3-yl)methyl]benzamide]
[1]
  EC50: > 10 µM
[2]
  EC50: > 100 µM

## Cc1cc(C(=O)N(Cc2cccnc2)Cc2cc(Cl)cc(Cl)c2)cc(C)c1O [Compound 69]
[1]
  EC50: > 10 µM
[2]
  EC50: > 100 µM

## Cn1ncc2ccc(CN(Cc3cccnc3)C(=O)c3cccc(F)c3)cc21 [Compound 128]
[1]
  EC50: 1 to 10 µM
[2]
  EC50: > 100 µM

## CC(C)Oc1ccc(C(=O)N(Cc2cccnc2)Cc2ccc(Cl)cc2Cl)cc1 [Compound 90]
[1]
  EC50: > 10 µM
[2]
  EC50: > 100 µM

## O=C(Cc1ccccc1)N(Cc1cccnc1)Cc1ccc(Cl)cc1Cl [Compound 94]
[1]
  EC50: > 10 µM
[2]
  EC50: > 100 µM

## Cc1nocc1C(=O)N(Cc1cccnc1)Cc1ccc(Cl)cc1Cl [Compound 140]
[1]
  EC50: > 10 µM
[2]
  EC50: > 100 µM

## NC(=O)c1ccc(CN(Cc2ccc(Cl)cc2Cl)C(=O)c2cccc(F)c2)cn1 [Compound 143, 5-({N-[(2,4-dichlorophenyl)methyl]-1-(3-fluorophenyl)formamido}methyl)pyridine-2-carboxamide]
[1]
  EC50: > 10 µM
[2]
  EC50: > 100 µM

## COc1cccc(CN(Cc2cccnc2)C(=O)c2cccc(F)c2)c1Cl [Compound 127]
[1]
  EC50: 1 to 10 µM
[2]
  EC50: > 100 µM

## O=C1NCc2cc(CN(Cc3ccccc3Cl)C(=O)c3cc(F)cc(F)c3)cnc21 [Compound 182]
[1]
  EC50: 1 to 10 µM
[2]
  EC50: 10 to 100 µM

## O=C(c1ccc(F)c(Cl)c1)N(Cc1cccnc1)Cc1ccc(Cl)cc1Cl [Compound 19]
[1]
  EC50: 1 to 10 µM
[2]
  EC50: > 100 µM

## Cc1nonc1C(=O)N(Cc1cccnc1)Cc1ccc(Cl)cc1Cl [Compound 116]
[1]
  EC50: > 10 µM
[2]
  EC50: > 100 µM

## O=C(c1cccc(F)c1)N(Cc1ccncc1)Cc1ccc(Cl)cc1Cl [Compound 97]
[1]
  EC50: > 10 µM
[2]
  EC50: > 100 µM

## O=C(c1cc(F)cc(F)c1)N(Cc1cccnc1)Cc1ccc(Cl)cc1Cl [Compound 121]
[1]
  EC50: 0.1 to 1 µM
[2]
  EC50: 10 to 100 µM

## O=C(c1cc(F)cc(F)c1)N(Cc1ccc(-c2cnn[nH]2)nc1)Cc1ccccc1Cl [Compound 171]
[1]
  EC50: 0.1 to 1 µM
[2]
  EC50: 10 to 100 µM

## Cc1cc(C(=O)N(Cc2cccnc2)Cc2cc(Cl)cc(Cl)c2)ccc1Br [Compound 78]
[1]
  EC50: > 10 µM
[2]
  EC50: > 100 µM

## O=C(c1ccc(Br)cc1)N(Cc1cccnc1)Cc1cc(Cl)cc(Cl)c1 [Compound 26]
[1]
  EC50: > 10 µM
[2]
  EC50: > 100 µM

## O=C(c1cc(F)c(F)c(F)c1)N(Cc1cccnc1)Cc1ccc(Cl)cc1Cl [Compound 119]
[1]
  EC50: 0.1 to 1 µM
[2]
  EC50: 10 to 100 µM

## O=C(O)c1ccc(CN(Cc2ccnc(Cl)c2Cl)C(=O)c2cc(F)cc(F)c2)cn1 [Compound 201]
[1]
  EC50: < 0.1 µM
[2]
  EC50: 1 to 10 µM

## Cn1ncc(CN(Cc2ccc(C(=O)O)nc2)C(=O)c2cc(F)cc(F)c2)c1Cl [Compound 184]
[1]
  EC50: 0.1 to 1 µM
[2]
  EC50: 10 to 100 µM

## O=C(c1ccccc1Oc1ccccc1)N(Cc1cccnc1)Cc1cc(Cl)cc(Cl)c1 [Compound 55]
[1]
  EC50: > 10 µM
[2]
  EC50: > 100 µM

## O=C(c1cnon1)N(Cc1cccnc1)Cc1ccc(Cl)cc1Cl [Compound 114]
[1]
  EC50: > 10 µM
[2]
  EC50: > 100 µM

## O=C(c1cccc(F)c1)N(Cc1cccnc1)Cc1ccccc1Cl [Compound 139]
[1]
  EC50: 1 to 10 µM
[2]
  EC50: > 100 µM

## O=C(c1cc(F)cc(F)c1)N(Cc1cccnc1)[C@@H](c1cn[nH]c1)c1ccc(Cl)cc1Cl [Compound 222]
[1]
  EC50: 1 to 10 µM
[2]
  EC50: 10 to 100 µM

## O=C(c1cccc(Oc2ccccc2)c1)N(Cc1cccnc1)Cc1ccc(Cl)cc1Cl [Compound 31]
[1]
  EC50: > 10 µM
[2]
  EC50: > 100 µM
